For one test, the target named is Bcl-2 (Homo sapiens (Human), UniProt P10415). The test is described as follows: Bcl-2 competition binding (fluorescence polarization) assay. To be noted: fluorescein labeled BH3 peptide 15 nM, Bcl-2 protein 30 nM, 3 hours of incubation at room temperature. In a few lines:
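Fluorescence polarization competition of 15 nM labeled 23-mer BH3 peptide with 30 nM purified Bcl-2, in 20 mM Hepes pH 7.0, 50 mM KCl, 5 mM MgCl2, 20 mM Na2MoO4, 0.1 mg/ml bovine gamma globulin, 0.01% NP40. Compounds 20 μM to 2 nM final; mP read after 3 h at room temperature, background-subtracted. IC50 from sigmoidal dose-response fit.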

In test [1] the test system is BCL-2-dependent acute lymphoblastic leukemia (ALL) cell line RS4; 11 with G101V mutation. In words: In vitro anti-proliferation assay (ATPlite) in RS4; 11 with G101V mutation. The class given is cell-based. Particulars: about 72 hours incubation, medium with 5% FBS or 10% normal human serum, ATPlite luminescence. The procedure:
Cell antiproliferation was assayed by PerkinElmer ATPlite™ Luminescence Assay System. Briefly, the various test cancer cell lines were plated at a density of about 1×10^4 cells per well in Costar 96-well plates, and were incubated with different concentrations of compounds for about 72 hours in medium supplemented with 5% FBS or 10% normal human serum (NHS). One lyophilized substrate solution vial was then reconstituted by adding 5 mL of substrate buffer solution, and was agitated gently until the solution was homogeneous. About 50 μL of mammalian cell lysis solution was added to 100 μL of cell suspension per well of a microplate, and the plate was shaken for about five minutes in an orbital shaker at ˜700 rpm. This procedure was used to lyse the cells and to stabilize the ATP. Next, 50 μL substrate solution was added to the wells and microplate was shaken for five minutes in an orbital shaker at ˜700 rpm. Finally, the luminescence was measured by a PerkinElmer TopCount® Microplate Scintillation Counter. Such assays, carried out with a range of doses of test compounds, allowed the determination of the cellular anti-antiproliferative IC50 of the compounds of the present invention.

Our source for the IC50 values is patent US20240166646A1, “1H-PYRROLO[2,3-B]PYRIDINE DERIVATIVES AS BCL-2 INHIBITORS FOR THE TREATMENT OF NEOPLASTIC AND AUTOIMMUNE DISEASES” (Newave Pharmaceutical Inc., priority 2020, published 2024).

Counter-ions that a name gives are not always drawn. Where only a bound is given, the exact number is not on record here.

Bcl-2, sequence (P10415 whole entry): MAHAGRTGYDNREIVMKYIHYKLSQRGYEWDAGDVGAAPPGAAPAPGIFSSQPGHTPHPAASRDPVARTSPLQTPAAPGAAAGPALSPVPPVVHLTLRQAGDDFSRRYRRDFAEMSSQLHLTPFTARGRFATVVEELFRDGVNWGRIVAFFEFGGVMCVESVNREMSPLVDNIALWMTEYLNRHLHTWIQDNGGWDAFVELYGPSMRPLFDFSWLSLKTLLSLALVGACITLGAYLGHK

For `Cc1ccccc1[C@@H]1CCCN1C1CC2(CCN(c3ccc(C(=O)NS(=O)(=O)c4ccc(NCC5CCC(C)(O)CC5)c([N+](=O)[O-])c4)c(N4c5cc6cc[nH]c6nc5O[C@@H]5COC[C@H]54)c3)CC2)C1` (stereo partly drawn) [Example 41, N-((4-((((1r,4r)-4-hydroxy-4-methylcyclohexyl)methyl)amino)-3-nitrophenyl)sulfonyl)-2-((5aR,8aS)-5a,6,8,8a-tetrahydrofuro[3,4-b]pyrrolo[3′,2′:5,6]pyrido[3,2-e][1,4]oxazin-5(1H)-yl)-4-(2-((S)-2-(o-tolyl)pyrrolidin-1-yl)-7-azaspiro[3.5]nonan-7-yl)benzamide], the IC50 is 0.18 nM on Bcl-2 and 14.7 nM in test [1].

Consider `CO[C@]1(C)CC[C@H](CNc2ccc(S(=O)(=O)NC(=O)c3ccc(N4CCC5(CC4)CC(N4CCC[C@H]4c4ccccc4C(C)C)C5)cc3N3c4cc5cc[nH]c5nc4O[C@@H]4COC[C@H]43)cc2[N+](=O)[O-])CC1` [Example 37, 4-(2-((S)-2-(2-isopropylphenyl)pyrrolidin-1-yl)-7-azaspiro[3.5]nonan-7-yl)-N-((4-((((1s,4s)-4-methoxy-4-methylcyclohexyl)methyl)amino)-3-nitrophenyl)sulfonyl)-2-((5aR,8aS)-5a,6,8,8a-tetrahydrofuro[3,4-b]pyrrolo[3′,2′:5,6]pyrido[3,2-e][1,4]oxazin-5(1H)-yl)benzamide hydrochloride], for which the IC50 amounted to 0.358 nM at Bcl-2 and 15.2 nM in test [1].

For the molecule `CC(C)Oc1ccccc1[C@@H]1CCCN1C1CC2(CCN(c3ccc(C(=O)NS(=O)(=O)c4ccc(NCC5CCOCC5)c([N+](=O)[O-])c4)c(N4c5cc6cc[nH]c6nc5O[C@@H]5CCOC[C@H]54)c3)CC2)C1` [Example 59, 4-(2-((S)-2-(2-isopropoxyphenyl)pyrrolidin-1-yl)-7-azaspiro[3.5]nonan-7-yl)-N-((3-nitro-4-(((tetrahydro-2H-pyran-4-yl)methyl)amino)phenyl)sulfonyl)-2-((5aR,9aR)-5a,8,9,9a-tetrahydro-6H-pyrano[4,3-b]pyrrolo[3′,2′:5,6]pyrido[3,2-e][1,4]oxazin-5(1H)-yl)benzamide], the IC50 on Bcl-2 was determined as 0.101 nM; in test [1] (RS4-11), 124 nM.

With `Cc1ccccc1[C@@H]1CCCN1C1CC2(CCN(c3ccc(C(=O)NS(=O)(=O)c4ccc(NCC5CCOCC5)c([N+](=O)[O-])c4)c(N4c5cc6cc[nH]c6nc5O[C@@H]5COC[C@H]54)c3)CC2)C1` [Example 4, 2-[(11R,15S)-13,16-dioxa-2,4,10-triazatetracyclo[7.7.0.0^{3,7}.0^{11,15}]hexadeca-1(9),2,5,7-tetraen-10-yl]-4-{2-[(2S)-2-(2-methylphenyl)pyrrolidin-1-yl]-7-azaspiro[3.5]nonan-7-yl}-N-{3-nitro-4-[(oxan-4-ylmethyl)amino]benzenesulfonyl}benzamide], the IC50 on Bcl-2 amounted to 0.183 nM; in test [1], 28.3 nM.

As to `CC(C)Oc1ccccc1[C@@H]1CCCN1C1CC2(CCN(c3ccc(C(=O)NS(=O)(=O)c4ccc(NCC5CCOCC5)c([N+](=O)[O-])c4)c(N4c5cc6cc[nH]c6nc5O[C@H]5COCC[C@H]54)c3)CC2)C1` [Example 64, 2-[(3R,8R)-2,5-dioxa-9,15,17-triazatetracyclo[8.7.0.0^{3,8}.0^{12,16}]heptadeca-1(10),11,13,16-tetraen-9-yl]-4-{2-[(2S)-2-(2-isopropoxyphenyl)pyrrolidin-1-yl]-7-azaspiro[3.5]nonan-7-yl}-N-{3-nitro-4-[(oxan-4-ylmethyl)amino]benzenesulfonyl}benzamide], the IC50 amounted to 0.341 nM at Bcl-2 and 62.4 nM in test [1].

Take `C=Cc1ccccc1[C@@H]1CCCN1C1CC2(CCN(c3ccc(C(=O)NS(=O)(=O)c4ccc(NCC5CCOCC5)c([N+](=O)[O-])c4)c(N4c5cc6cc[nH]c6nc5O[C@@H]5COC[C@H]54)c3)CC2)C1` [Example 6, 2-[(11R,15S)-13,16-dioxa-2,4,10-triazatetracyclo[7.7.0.0^{3,7}.0^{11,15}]hexadeca-1(9),2,5,7-tetraen-10-yl]-4-{2-[(2S)-2-(2-ethenylphenyl)pyrrolidin-1-yl]-7-azaspiro[3.5]nonan-7-yl}-N-{3-nitro-4-[(oxan-4-ylmethyl)amino]benzenesulfonyl}benzamide hydrochloride]: the IC50 came out at 0.083 nM on Bcl-2 and 29 nM in test [1].

Regarding `CC(C)(C#N)c1ccccc1[C@@H]1CCCN1C1CC2(CCN(c3ccc(C(=O)NS(=O)(=O)c4ccc(NCC5CCOCC5)c([N+](=O)[O-])c4)c(N4c5cc6cc[nH]c6nc5O[C@@H]5COC[C@H]54)c3)CC2)C1` [Example 19, 4-{2-[(2S)-2-[2-(1-cyano-1-methylethyl)phenyl]pyrrolidin-1-yl]-7-azaspiro[3.5]nonan-7-yl}-2-[(11R,15S)-13,16-dioxa-2,4,10-triazatetracyclo[7.7.0.0^{3,7}.0^{11,15}]hexadeca-1(9),2,5,7-tetraen-10-yl]-N-{3-nitro-4-[(oxan-4-ylmethyl)amino]benzenesulfonyl}benzamide hydrochloride], the IC50 on Bcl-2 was 0.1 nM; in test [1] it was 71.8 nM.

Consider `O=C(NS(=O)(=O)c1ccc(NCC2CCOCC2)c([N+](=O)[O-])c1)c1ccc(N2CCC3(CC2)CC(N2CCC[C@H]2c2ccccc2C2CC2)C3)cc1N1c2cc3cc[nH]c3nc2O[C@@H]2COC[C@H]21` [Example 8, 4-{2-[(2S)-2-(2-cyclopropylphenyl)pyrrolidin-1-yl]-7-azaspiro[3.5]nonan-7-yl}-2-[(11R,15S)-13,16-dioxa-2,4,10-triazatetracyclo[7.7.0.0^{3,7}.0^{11,15}]hexadeca-1(9),2,5,7-tetraen-10-yl]-N-{3-nitro-4-[(oxan-4-ylmethyl)amino]benzenesulfonyl}benzamide hydrochloride], for which the results for the IC50 (at Bcl-2; in test [1]) were 0.066 nM and 9.1 nM, respectively.

For the molecule `CC(C)Oc1ccccc1[C@@H]1CCCN1C1CC2(CCN(c3ccc(C(=O)NS(=O)(=O)c4ccc(NC[C@H]5COCCO5)c([N+](=O)[O-])c4)c(N4c5cc6cc[nH]c6nc5O[C@@H]5COC[C@H]54)c3)CC2)C1` [Example 43, N-((4-((((S)-1,4-dioxan-2-yl)methyl)amino)-3-nitrophenyl)sulfonyl)-4-(2-((S)-2-(2-isopropoxyphenyl)pyrrolidin-1-yl)-7-azaspiro[3.5]nonan-7-yl)-2-((5aR,8aS)-5a,6,8,8a-tetrahydrofuro[3,4-b]pyrrolo[3′,2′:5,6]pyrido[3,2-e][1,4]oxazin-5(1H)-yl)benzamide], the IC50 is 0.28 nM at Bcl-2 and 86.4 nM in test [1] (RS4-11).

Regarding `CC(C)Oc1ccccc1[C@@H]1CCCN1C1CC2(CCN(c3ccc(C(=O)NS(=O)(=O)c4ccc(NCC5CCOCC5)c([N+](=O)[O-])c4)c(N4c5cc6cc[nH]c6nc5O[C@@H]5COC[C@H]54)c3)CC2)C1` [Example 20, 2-[(11R,15S)-13,16-dioxa-2,4,10-triazatetracyclo[7.7.0.0^{3,7}.0^{11,15}]hexadeca-1(9),2,5,7-tetraen-10-yl]-4-{2-[(2S)-2-(2-isopropoxyphenyl)pyrrolidin-1-yl]-7-azaspiro[3.5]nonan-7-yl}-N-{3-nitro-4-[(oxan-4-ylmethyl)amino]benzenesulfonyl}benzamide], the IC50 at Bcl-2 was determined as 0.299 nM; in test [1] it was 60.4 nM.

On to `CC(C)Oc1ccccc1[C@@H]1CCCN1C1CC2(CCN(c3ccc(C(=O)NS(=O)(=O)c4ccc(NCC5CCOCC5)c([N+](=O)[O-])c4)c(N4c5cc6cc[nH]c6nc5O[C@H]5COC[C@H]54)c3)CC2)C1` [Example 54, 4-(2-((S)-2-(2-isopropoxyphenyl)pyrrolidin-1-yl)-7-azaspiro[3.5]nonan-7-yl)-N-((3-nitro-4-(((tetrahydro-2H-pyran-4-yl)methyl)amino)phenyl)sulfonyl)-2-((5aR,8aR)-5a,6,8,8a-tetrahydrofuro[3,4-b]pyrrolo[3′,2′:5,6]pyrido[3,2-e][1,4]oxazin-5(1H)-yl)benzamide], for which the IC50 at Bcl-2 was 0.586 nM; in test [1] (RS4-11), more than 1000 nM.

For the molecule `CC(C)Oc1ccccc1[C@@H]1CCCN1C1CC2(CCN(c3ccc(C(=O)NS(=O)(=O)c4ccc(NCC5CCC(C)(O)CC5)c([N+](=O)[O-])c4)c(N4c5cc6cc[nH]c6nc5O[C@@H]5COC[C@H]54)c3)CC2)C1` (stereo partly drawn) [Example 44, N-((4-((((1s,4s)-4-hydroxy-4-methylcyclohexyl)methyl)amino)-3-nitrophenyl)sulfonyl)-4-(2-((S)-2-(2-isopropoxyphenyl)pyrrolidin-1-yl)-7-azaspiro[3.5]nonan-7-yl)-2-((5aR,8aS)-5a,6,8,8a-tetrahydrofuro[3,4-b]pyrrolo[3′,2′:5,6]pyrido[3,2-e][1,4]oxazin-5(1H)-yl)benzamide], the IC50 at Bcl-2 was 0.179 nM; in test [1], 98.3 nM.

Usually IC50 stands for the concentration that inhibits the measured activity by half.
